Results on one molecule are retold here after patent US8436138B2, “Binder for C-reactive protein” (Modpro AB, priority 2006, dated 2013).

Each structure is given as a SMILES string.

This data set in a line: Stability in aqueous solution. It counts as physicochemical. The settings on record: acidic pH (0.1% TFA). An excerpt:
Commercially available aminohexanoic acid 2 was N,N-dimethylated^11 12 by an Eschweiler-Clarke-type procedure (treatment with formaldehyde and hydrogen/palladium/carbon), and the resulting product (3, 86%) was esterified by treatment with methanolic hydrogen chloride to give the methyl ester 4 (96%). Quartenarization was effected by reacting 4 with monomethoxytrityl-protected bromoethanol 1, forming derivative 5 (73%). Unprotected bromoethanol could also be reacted with 4, but the reaction yield was lower and the product was more difficult to detect and purify. Monomethoxytrityl protection conferred lipophilicity and TLC detectability (UV visible and acid stainable) to the crucial intermediate 5. Saponification of 5 with lithium hydroxide/water/t-butanol gave the corresponding acid 6 (95%), which was treated without isolation with p-nitrophenol and diisopropyl carbodiimide in pyridine to give the p-nitrophenyl ester 7 (86%). Brief treatment of 7 with formic acid gave the corresponding alcohol 8, which was used directly in the next step, because of its sensitivity to self-condensation. Reaction of crude 8 at 0° C. in acetonitril with first an excess of phosphorous oxychloride and triethylamine, then water gave the desired monophosphate 9 in 22% yield from 7, after HPLC purification. […]

As to `C[N+](C)(CCCCCC(=O)Oc1ccc([N+](=O)[O-])cc1)CCOP(=O)([O-])O` [Peptide 9, 6-(N,N-Dimethylamino)-N-[(2-phosphoryloxy)-ethyl]-hexanoic acid p-nitrophenyl ester], the “stability in aqueous solution” value is “stable”.
